# Data reported in ChEMBL document CHEMBL4411300 (Eur J Med Chem, 2019).
# The source made the active and inactive calls. The calls are words filed in the database; no cut-off is given here.
# Tests used:
# Trypanosoma cruzi [1] = experiment: (§1) Antitrypanosomal activity against Trypanosoma cruzi MHOM/Pe/2011/Arequipa DTU 5 trypomastigotes infected in Balb/c mouse assessed as reduction in Ig-G level in serum at 20 mg/kg, po once daily for 5 consecutive days starting from day 10 post infection measured on day 16 post infection by ELISA; type: functional, organism-based
# [2] = Toxicity in Balb/c mouse assessed as reduction in body mass at 20 mg/kg, po once daily for 5 consecutive days starting from day 10 post infection relative to control; type: organism-based; set-up: scale not given: the % may be the effect or the level left; conditions: in vivo
# Trypanosoma cruzi [3] = experiment: Trypanocidal activity against Trypanosoma cruzi TINF/CH/1956/Tulahuen DTU 6 epimastigotes after 48 to 72 hrs by resazurin dye based assay; type: functional, organism-based
# Trypanosoma cruzi [4] = experiment: Trypanocidal activity against Trypanosoma cruzi TINF/CH/1956/Tulahuen DTU 6 amastigotes infected in African green monkey Vero cells after 72 hrs by Giemsa-staining based microscopic assay; type: functional, organism-based; conditions: TINF/CH/1956/Tulahuen DTU 6, Vero
# Trypanosoma cruzi [5] = experiment: Antitrypanosomal activity against Trypanosoma cruzi MHOM/Pe/2011/Arequipa DTU 5 epimastigotes assessed as effect on parasite glycolytic pathway by measuring decrease in D-lactate excretion at IC25 after 72 hrs by 1H NMR method; type: functional, organism-based
# Trypanosoma cruzi [6] = experiment: Trypanocidal activity against Trypanosoma cruzi MHOM/Pe/2011/Arequipa DTU 5 amastigotes infected in African green monkey Vero cells assessed as reduction in number of amastigotes per infected cells at log -0.41 to 1.7 after 72 hrs by Giemsa-staining based assay; type: functional, organism-based
# [7] = (§2) Hepatotoxicity in Balb/c mouse infected with Trypanosoma cruzi MHOM/Pe/2011/Arequipa DTU 5 trypomastigotes assessed as change in alkaline phosphatase level at 20 mg/kg, po once daily for 5 consecutive days starting from day 10 post infection measured on day 127 post infection by biochemical analysis (reference value: 161 U/L); type: toxicity, organism-based; conditions: in vivo
# Trypanosoma cruzi [8] = experiment: Antitrypanosomal activity against Trypanosoma cruzi MHOM/Pe/2011/Arequipa DTU 5 trypomastigotes infected in Balb/c mouse assessed as reduction in Ig-G level in serum at 20 mg/kg, po once daily for 5 consecutive days starting from day 10 post infection measured on day 100 post infection by ELISA; type: functional, organism-based
# [9] = (§3) Hepatotoxicity in Balb/c mouse infected with Trypanosoma cruzi MHOM/Pe/2011/Arequipa DTU 5 trypomastigotes assessed as increase in total bilirubin level at 20 mg/kg, po once daily for 5 consecutive days starting from day 75 post infection measured on day 81 post infection relative to control; type: toxicity, organism-based; conditions: in vivo
# [10] = as §3, with “ratio of serum AST to GOT” for “total bilirubin”, “127” for “81”; type: toxicity, organism-based; conditions: in vivo
# [11] = Selectivity index, ratio of IC50 for African green monkey Vero cells to IC50 for Trypanosoma cruzi TINF/CH/1956/Tulahuen DTU 6 trypomastigotes derived from infected Balb/c albino mouse; type: toxicity; conditions: read-out: Ratio IC50
# [12] = as §3, with “decrease” for “increase”, “ratio of serum AST to GOT” for “total bilirubin”; type: toxicity, organism-based; set-up: scale not given: the % may be the effect or the level left; conditions: in vivo
# [13] = Toxicity in Balb/c mouse assessed as reduction in body mass at 20 mg/kg, po once daily for 5 consecutive days starting from day 75 post infection relative to control; type: organism-based; set-up: scale not given: the % may be the effect or the level left; conditions: in vivo
# [14] = Selectivity index, ratio of IC50 for African green monkey Vero cells to IC50 for Trypanosoma cruzi IRHOD/CO/2008/SN3 DTU 1 trypomastigotes derived from infected Balb/c albino mouse; type: toxicity; conditions: read-out: Ratio IC50
# Trypanosoma cruzi [15] = experiment: Antitrypanosomal activity against Trypanosoma cruzi MHOM/Pe/2011/Arequipa DTU 5 trypomastigotes infected in Balb/c mouse assessed as reduction in Ig-G level in serum at 20 mg/kg, po once daily for 5 consecutive days starting from day 75 post infection measured on day 81 post infection by ELISA; type: functional, organism-based
# Trypanosoma cruzi [16] = experiment: Antitrypanosomal activity against Trypanosoma cruzi MHOM/Pe/2011/Arequipa DTU 5 epimastigotes assessed as effect on parasite glycolytic pathway by measuring decrease in L-alanine excretion at IC25 after 72 hrs by 1H NMR method; type: functional, organism-based
# [17] = Hepatotoxicity in Balb/c mouse infected with Trypanosoma cruzi MHOM/Pe/2011/Arequipa DTU 5 trypomastigotes assessed as increase in alkaline phosphatase level at 20 mg/kg, po once daily for 5 consecutive days starting from day 75 post infection measured on day 81 post infection relative to control; type: toxicity, organism-based; conditions: in vivo
# Trypanosoma cruzi [18] = experiment: Antitrypanosomal activity against Trypanosoma cruzi MHOM/Pe/2011/Arequipa DTU 5 epimastigotes assessed as effect on parasite glycolytic pathway by measuring decrease in acetate excretion at IC25 after 72 hrs by 1H NMR method; type: functional, organism-based
# Trypanosoma cruzi [19] = experiment: Trypanocidal activity against Trypanosoma cruzi MHOM/Pe/2011/Arequipa DTU 5 amastigotes infected in African green monkey Vero cells after 72 hrs by Giemsa-staining based microscopic assay; type: functional, organism-based; conditions: MHOM/Pe/2011/Arequipa DTU 5, Vero
# [20] = Inhibition of Trypanosoma cruzi MHOM/Pe/2011/Arequipa DTU 5 epimastigotes Fe-SOD by UV-Visible spectrophotometric method
# [21] = Selectivity index, ratio of IC50 for African green monkey Vero cells to IC50 for Trypanosoma cruzi MHOM/Pe/2011/Arequipa DTU 5 amastigotes infected in African green monkey Vero cells; type: toxicity; conditions: read-out: Ratio IC50
# Trypanosoma cruzi [22] = experiment: Trypanocidal activity against Trypanosoma cruzi IRHOD/CO/2008/SN3 DTU 1 epimastigotes after 48 to 72 hrs by resazurin dye based assay; type: functional, organism-based
# [23] = Nephrotoxicity in Balb/c mouse infected with Trypanosoma cruzi MHOM/Pe/2011/Arequipa DTU 5 trypomastigotes assessed as change in serum urea level at 20 mg/kg, po once daily for 5 consecutive days starting from day 10 post infection measured on day 127 post infection (reference value: 31 mg/dl); type: toxicity, organism-based; conditions: in vivo
# [24] = Hepatotoxicity in Balb/c mouse infected with Trypanosoma cruzi MHOM/Pe/2011/Arequipa DTU 5 trypomastigotes assessed as increase in serum ALT to GPT level at 20 mg/kg, po once daily for 5 consecutive days starting from day 10 post infection measured on day 16 post infection relative to control; type: toxicity, organism-based; conditions: in vivo
# [25] = Selectivity index, ratio of IC50 for African green monkey Vero cells to IC50 for Trypanosoma cruzi TINF/CH/1956/Tulahuen DTU 6 epimastigotes; type: toxicity; conditions: read-out: Ratio IC50
# Vero = experiment: Cytotoxicity against African green monkey Vero cells assessed as reduction in cell viability after 48 to 72 hrs by resazurin dye based assay; conditions: Chlorocebus sabaeus
# [26] = as §2, with “Cardiotoxicity” for “Hepatotoxicity”, “serum LDH” for “alkaline phosphatase”, “16” for “127”, “3275” for “161”; type: toxicity, organism-based; conditions: in vivo
# Trypanosoma cruzi [27] = experiment: Antitrypanosomal activity against Trypanosoma cruzi MHOM/Pe/2011/Arequipa DTU 5 epimastigotes assessed as effect on parasite glycolytic pathway by measuring decrease in succinate excretion at IC25 after 72 hrs by 1H NMR method relative to control; type: functional; set-up: scale not given: the % may be the effect or the level left
# Trypanosoma cruzi [28] = experiment: as §1, with “parasitaemia” for “Ig-G”, “level” for “level in serum”, “23” for “16”, “Neubauer chamber method relative to control” for “ELISA”; type: functional
# [29] = Cardiotoxicity in Balb/c mouse infected with Trypanosoma cruzi MHOM/Pe/2011/Arequipa DTU 5 trypomastigotes assessed as decrease in serum LDH level at 20 mg/kg, po once daily for 5 consecutive days starting from day 75 post infection measured on day 127 post infection relative to control; type: toxicity, organism-based; set-up: scale not given: the % may be the effect or the level left; conditions: in vivo
Compound,Activity (Trypanosoma cruzi [1]),Activity [2] [%],IC50 (Trypanosoma cruzi [3]) [µM],IC50 (Trypanosoma cruzi [4]) [µM],Activity (Trypanosoma cruzi [5]),Activity (Trypanosoma cruzi [6]),Activity [7] [U/L],Activity (Trypanosoma cruzi [8]),Activity [9],Activity [10],selectivity ratio [11],Activity [12],Activity [13] [%],selectivity ratio [14],Activity (Trypanosoma cruzi [15]),Activity (Trypanosoma cruzi [16]),Activity [17],Activity (Trypanosoma cruzi [18]),IC50 (Trypanosoma cruzi [19]) [µM],IC50 [20] [µM],also measured
Cl.Cl.Cl.Cl.Cl.Cl.c1ccc2nc(CNCCN(CCNCc3ccc4ccccc4n3)CCNCc3ccc4ccccc4n3)ccc2c1,inactive,< 10,19.5,2.3,Active,Active,161,inactive,<= 30%,<= 10%,890,<= 10%,< 10,1560,inactive,Active,<= 20%,Active,2.4,29,selectivity ratio [21]: 692; IC50 (Trypanosoma cruzi [22]): 14 µM; Activity [23]: 34 mg/dL; Activity [24]: > 40%; selectivity ratio [25]: 84.8; IC50 (Vero): 1560 µM; Activity [26]: 3275 U/L; Activity (Trypanosoma cruzi [27]): 49%
O=C(Cn1ccnc1[N+](=O)[O-])NCc1ccccc1 [BENZNIDAZOLE],,,,,,,161,,<= 30%,<= 10%,,,,,,,> 40%,,,,Activity (Trypanosoma cruzi [28]): Active; Activity [29]: <= 10%; Activity [24]: > 40%; Activity [26]: 3275 U/L
Cl.Cl.Cl.NCCN(CCN)CCNCc1ccc2c(c1)Cc1ccccc1-2,Active,< 10,30.7,15.1,Active,Active,,Active,,,100,<= 10%,< 10,142,inactive,Active,,Active,4.8,56.9,Activity (Trypanosoma cruzi [28]): 72%; Activity [29]: <= 10%; selectivity ratio [21]: 365; IC50 (Trypanosoma cruzi [22]): 19.3 µM; Activity [23]: 34 mg/dL; selectivity ratio [25]: 57.5; IC50 (Vero): 1770 µM; Activity (Trypanosoma cruzi [27]): 34%
